Measured values from ChEMBL document CHEMBL6078684, “Discovery of a Novel Non-invasive AR PROTAC Degrader for the Topical Treatment of Androgenetic Alopecia” (J Med Chem, 2024).
Calls of active or inactive are those of the source. The rule behind the calls is not given here.

Assays:
[1] = Drug uptake in male Sprague-Dawley rat Dorsal skin assessed as retention rat at 1 mg/ml, TOP measured after 30 mins by LC-MS/MS analysis; type: ADME, tissue-based, Zone of skin; conditions: in vivo, topical_or_ocular, 0.5 h
[2] = target: Protein cereblon/Androgen receptor (Homo sapiens, UniProt P10275+Q96SW2); assay: PROTAC activity at CRBN/AR in human dermal papilla cell assessed as induction of AR degradation measured after 24 to 72 hrs by Western blot analysis; type: cell-based
[3] = tested on: Human dermal papilla cell; assay: Downregulation of AR protein expression in human dermal papilla cells at 1 uM preincubated with testosterone for 24 hrs followed by compound addition and measured after 48 hrs by Western blot analysis; type: functional, cell-based
[4] = tested on: Human dermal papilla cell; assay: Upregulation of beta-catenin level in human dermal papilla cells at 1 uM preincubated with testosterone for 24 hrs followed by compound addition and measured after 48 hrs by Western blot analysis; type: functional, cell-based
[5] = tested on: Human dermal papilla cell; assay: Downregulation of TGF-beta1 expression level in human dermal papilla cells at 1 uM preincubated with testosterone for 24 hrs followed by compound addition and measured after 48 hrs by Western blot analysis; type: functional, cell-based
[6] = Inhibition of TGF-beta1 release in human dermal papilla cells assessed as TGF-beta1 concentration at 1 uM preincubated with testosterone for 24 hrs followed by compound addition and measured after 48 hrs by ELISA; type: functional, Human dermal papilla cell
Mus musculus [7] = assay: Hair regeneration efficacy in testosterone induced male C57BL/6 mouse androgenetic alopecia model at 5 %, TOP administered once daily for 14 days and measured after 21 days with co-administration of 0.2% testosterone for 28 days by photographic analysis; type: functional, organism-based; conditions: time 21.0 day
Mus musculus [8] = assay: Hair regeneration efficacy in testosterone induced male C57BL/6 mouse androgenetic alopecia model earlier pigmentation at 5 %, TOP administered once daily for 14 days and measured after 21 days with co-administration of 0.2% testosterone for 28 days by photographic analysis; type: functional, organism-based; conditions: time 14.0 day
Mus musculus [9] = assay: In vivo induction of AR degradation in testosterone induced male C57BL/6 mouse androgenetic alopecia model assessed as decrease in AR protein level in skin at […] TOP administered once daily for 14 days with co-administration of 0.2% testosterone for 28 days by Western blot analysis; type: functional, organism-based; conditions: time 14.0 day
Mus musculus [10] = assay: Hair regeneration efficacy in testosterone induced male C57BL/6 mouse androgenetic alopecia model assessed as generation of thick hair with intact scales at 5 %, TOP administered once daily for 14 days with co-administration of 0.2% testosterone and measured after 28 days by SEM analysis; type: functional, organism-based; conditions: time 28.0 day
Mus musculus [11] = assay: Hair regeneration efficacy in testosterone induced male C57BL/6 mouse androgenetic alopecia model assessed as well formed stratum corneum in hair at 5 %, TOP administered once daily for 14 days with co-administration of 0.2% testosterone and measured after 28 days by SEM analysis; type: functional, organism-based; conditions: time 28.0 day
Mus musculus [12] = assay: Hair regeneration efficacy in testosterone induced male C57BL/6 mouse androgenetic alopecia model assessed as entry of hair follicles to anagen phase by measuring high density of enlarged hair bulbs in subcutaneous tissue at 5 %, TOP administered once daily for 14 days with co-administration of 0.2% testosterone for 28 days by H and E staining based analysis; type: functional, organism-based; conditions: time 14.0 day
Mus musculus [13] = assay: Hair regeneration efficacy in testosterone induced male C57BL/6 mouse androgenetic alopecia model assessed as increase in hair cycle score at 5 %, TOP administered once daily for 14 days with co-administration of 0.2% testosterone for 28 days; type: functional, organism-based; conditions: time 14.0 day
Mus musculus [14] = assay: Hair regeneration efficacy in testosterone induced male C57BL/6 mouse androgenetic alopecia model assessed as increase in Ki67 expression in skin at 5 % TOP administered once daily for 14 days with co-administration of 0.2% testosterone for 28 days by DAPI staining based immunofluorescence analysis; type: functional, organism-based; conditions: time 14.0 day

Chain of Protein cereblon/Androgen receptor (P10275 whole entry): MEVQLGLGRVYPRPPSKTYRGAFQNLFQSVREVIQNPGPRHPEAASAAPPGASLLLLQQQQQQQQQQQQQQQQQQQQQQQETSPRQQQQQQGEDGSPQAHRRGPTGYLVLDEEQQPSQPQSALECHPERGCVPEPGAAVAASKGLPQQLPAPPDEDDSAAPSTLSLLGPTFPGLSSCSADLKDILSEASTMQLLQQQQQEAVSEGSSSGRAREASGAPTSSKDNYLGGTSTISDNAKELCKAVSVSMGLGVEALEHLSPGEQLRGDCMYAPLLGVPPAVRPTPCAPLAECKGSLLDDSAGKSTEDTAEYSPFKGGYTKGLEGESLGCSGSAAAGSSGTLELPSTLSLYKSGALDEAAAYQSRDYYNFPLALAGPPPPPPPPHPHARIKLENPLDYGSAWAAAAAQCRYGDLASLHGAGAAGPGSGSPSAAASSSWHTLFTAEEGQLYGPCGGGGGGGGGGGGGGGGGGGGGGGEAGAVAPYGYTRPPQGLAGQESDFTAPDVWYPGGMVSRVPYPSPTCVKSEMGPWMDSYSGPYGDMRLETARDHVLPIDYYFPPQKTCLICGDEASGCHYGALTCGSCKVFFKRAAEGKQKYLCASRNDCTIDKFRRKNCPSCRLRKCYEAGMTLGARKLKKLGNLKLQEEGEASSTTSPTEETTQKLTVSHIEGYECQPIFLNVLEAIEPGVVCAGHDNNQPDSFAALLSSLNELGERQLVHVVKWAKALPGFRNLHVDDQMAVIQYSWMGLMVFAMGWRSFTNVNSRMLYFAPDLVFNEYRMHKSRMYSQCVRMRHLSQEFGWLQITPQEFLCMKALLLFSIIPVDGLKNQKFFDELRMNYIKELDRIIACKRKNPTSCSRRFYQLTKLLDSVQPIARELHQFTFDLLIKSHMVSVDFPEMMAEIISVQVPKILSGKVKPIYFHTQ
Chain of Protein cereblon/Androgen receptor (Q96SW2 whole entry): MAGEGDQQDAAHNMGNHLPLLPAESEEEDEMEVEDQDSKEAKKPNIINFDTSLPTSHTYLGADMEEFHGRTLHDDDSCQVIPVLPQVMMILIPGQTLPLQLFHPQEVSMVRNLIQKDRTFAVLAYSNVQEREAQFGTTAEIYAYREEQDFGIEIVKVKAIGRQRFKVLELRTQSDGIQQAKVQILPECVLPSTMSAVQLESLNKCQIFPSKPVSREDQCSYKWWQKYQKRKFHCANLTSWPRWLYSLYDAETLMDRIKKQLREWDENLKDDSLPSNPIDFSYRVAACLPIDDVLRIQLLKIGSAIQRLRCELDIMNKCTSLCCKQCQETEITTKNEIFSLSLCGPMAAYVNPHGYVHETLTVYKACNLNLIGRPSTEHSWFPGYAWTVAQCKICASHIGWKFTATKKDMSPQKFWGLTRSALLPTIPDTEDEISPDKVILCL

Row | SMILES | Drug uptake [1] [%] | DC50 [2] [nM] | other results
1 | N#Cc1ccc(O[C@H]2CC[C@H](NC(=O)c3ccc(N4CCN(CC5CCN(c6ccc(C(=O)NC7CCC(=O)NC7=O)cc6)C5)CC4)cc3)CC2)cc1Cl (stereo not given in full) | 1.86 | > 1000 | 
2 | N#Cc1ccc(O[C@H]2CC[C@H](NC(=O)c3ccc(N4CCC(CCN5CCN(c6ccc(C(=O)NC7CCC(=O)NC7=O)cc6)CC5)CC4)cc3)CC2)cc1Cl (stereo not given in full) | 1 | > 1000 | 
3 | O=C1CCC(NC(=O)c2ccc(N3CCN(CCC4CCN(c5ccc(F)cc5)CC4)CC3)cc2)C(=O)N1 (stereo not given) | 3.92 |  | 
4 | N#Cc1ccc(O[C@H]2CC[C@H](NC(=O)c3ccc(N4CCC(N5CCN(c6ccc(C(=O)NC7CCC(=O)NC7=O)cc6)CC5)CC4)cc3)CC2)cc1Cl (stereo not given in full) | 1.31 | 104 | 
5 | CNC(=O)c1ccc(N2C(=S)N(c3ccc(C#N)c(C(F)(F)F)c3)C(=O)C2(C)C)cc1F [ENZALUTAMIDE] |  |  | Activity [3]: inactive; Activity [4]: Active; Activity [5]: Active; Activity [6]: 1195 pg/mL
6 | O=C1CCC(NC(=O)c2ccc(N3CCN(CCCCc4ccc(F)cc4)CC3)cc2)C(=O)N1 (stereo not given) | 6.93 |  | 
7 | Nc1cc(N2CCCCC2)nc(N)[n+]1[O-] [MINOXIDIL] |  |  | Activity [3]: inactive; Activity [4]: Active; Activity [5]: Active; Activity [6]: 952.22 pg/mL; Activity (Mus musculus [7]): Active; Activity (Mus musculus [8]): Active; Activity (Mus musculus [9]): inactive; Activity (Mus musculus [10]): Active; Activity (Mus musculus [11]): Active; Activity (Mus musculus [12]): Active; Activity (Mus musculus [13]): Active; Activity (Mus musculus [14]): Active
8 | O=C1CCC(N2Cc3cc(OCC#CCN4CCN(CC#Cc5ccc(C(F)(F)F)cc5)CC4)ccc3C2=O)C(=O)N1 (stereo not given) | 5.41 |  | 
9 | N#Cc1ccc(O[C@H]2CC[C@H](NC(=O)c3ccc(C4CCN(CC5CCCN(c6ccc7c(c6)C(=O)N(C6CCC(=O)NC6=O)C7=O)C5)CC4)cc3)CC2)cc1Cl (stereo not given in full) | 0.58 | > 1000 | 
10 | N#Cc1ccc(O[C@H]2CC[C@H](NC(=O)c3ccc(N4CCC(CN5CCN(c6ccc(C(=O)NC7CCC(=O)NC7=O)cc6)CC5)CC4)cc3)CC2)cc1Cl (stereo not given in full) | 0.81 | > 1000 | 
11 | O=C1CCC(NC(=O)c2ccc(N3CCN(C4CCN(c5ccc(F)cc5)CC4)CC3)cc2)C(=O)N1 (stereo not given) | 9.12 |  | 
12 | N#Cc1ccc(O[C@H]2CC[C@H](NC(=O)c3ccc(C4CCN(CC5CN(c6ccc(C(=O)NC7CCC(=O)NC7=O)cc6)C5)CC4)cc3)CC2)cc1Cl (stereo not given in full) | 1.23 | 70.9 | 
13 | N#Cc1ccc(O[C@H]2CC[C@H](NC(=O)c3ccc(N4CCN(C5CN(c6ccc7c(c6)C(=O)N(C6CCC(=O)NC6=O)C7=O)C5)CC4)cc3)CC2)cc1Cl (stereo not given in full) | 1.41 | > 1000 | 
14 | O=C1CCC(N2Cc3c(OCC#CCN4CCN(CC#Cc5ccc(C(F)(F)F)cc5)CC4)cccc3C2=O)C(=O)N1 (stereo not given) | 1.91 |  | 
15 | N#Cc1ccc(O[C@H]2CC[C@H](NC(=O)c3ccc(CCCCN4CCN(c5ccc(C(=O)NC6CCC(=O)NC6=O)cc5)CC4)cc3)CC2)cc1Cl (stereo not given in full) | 1.49 | > 1000 | 

Continued, in another order:

Row | Drug uptake [1] [%] | DC50 [2] [nM] | SMILES | other results
16 | 1.94 |  | O=C1CCC(N2C(=O)c3ccc(N4CCC(CN5CCC(c6ccc(C(F)(F)F)cc6)CC5)C4)cc3C2=O)C(=O)N1 (stereo not given) | 
17 | 0.96 |  | O=C1CCC(N2C(=O)c3cccc(N4CCC(CN5CCN(c6ccc(C(F)(F)F)cc6)CC5)C4)c3C2=O)C(=O)N1 (stereo not given) | 
18 | 2.22 |  | O=C1CCC(N2C(=O)c3cc(F)c(N4CC(CN5CCC(c6ccc(C(F)(F)F)cc6)CC5)C4)cc3C2=O)C(=O)N1 (stereo not given) | 
19 | 0.74 | > 1000 | N#Cc1ccc(O[C@H]2CC[C@H](NC(=O)c3ccc(N4CCN(CC5CCN(c6ccc7c(c6)C(=O)N(C6CCC(=O)NC6=O)C7=O)C5)CC4)cc3)CC2)cc1Cl (stereo not given in full) | 
20 | 0.69 |  | N#Cc1ccc(O[C@H]2CC[C@H](NC(=O)c3ccc(N4CCN(CC5CCN(c6ccc7c(c6)C(=O)N(C6CCC(=O)NC6=O)C7=O)CC5)CC4)cc3)CC2)cc1Cl (stereo not given in full) | 
21 | 4.34 |  | O=C1CCC(N2C(=O)c3cccc(NC4CCN(CC5CCN(c6ccc(C(F)(F)F)cc6)CC5)CC4)c3C2=O)C(=O)N1 (stereo not given) | 
22 | 0.62 | 207 | N#Cc1ccc(O[C@H]2CC[C@H](NC(=O)c3ccc(N4CCC(CN5CCN(c6ccc7c(c6)C(=O)N(C6CCC(=O)NC6=O)C7=O)CC5)CC4)cc3)CC2)cc1Cl (stereo not given in full) | 
23 | 5.84 |  | O=C1CCC(N2C(=O)c3ccc(N4CC(N5CCN(c6ccc(C(F)(F)F)cc6)CC5)C4)cc3C2=O)C(=O)N1 (stereo not given) | 
24 | 4.99 |  | O=C1CCC(NC(=O)c2ccc(N3CCN(CC4CCN(c5ccc(F)cc5)CC4)CC3)cc2)C(=O)N1 (stereo not given) | 
25 | 8.45 |  | O=C1CCC(N2C(=O)c3ccc(N4CC(CN5CCC(c6ccc(C(F)(F)F)cc6)CC5)C4)cc3C2=O)C(=O)N1 (stereo not given) | 
26 | 2.48 |  | O=C1CCC(N2Cc3cc(C#CCN4CCN(c5ccc(C(F)(F)F)cc5)CC4)ccc3C2=O)C(=O)N1 (stereo not given) | 
27 | 0.6 | > 1000 | N#Cc1ccc(O[C@H]2CC[C@H](NC(=O)c3ccc(C4CCN(CC5CN(c6ccc7c(c6)C(=O)N(C6CCC(=O)NC6=O)C7=O)C5)CC4)cc3)CC2)cc1Cl (stereo not given in full) | 
28 | 0.68 |  | O=C1CCC(N2C(=O)c3ccc(N4CCC(CN5CCN(c6ccc(C(F)(F)F)cc6)CC5)C4)cc3C2=O)C(=O)N1 (stereo not given) | 
29 | 8.73 |  | O=C1CCC(N2C(=O)c3ccc(N4CCN(CC5CCN(c6ccc(C(F)(F)F)cc6)CC5)CC4)cc3C2=O)C(=O)N1 (stereo not given) | 
30 | 5.75 |  | O=C1CCC(N2C(=O)c3ccc(N4CCCC(CN5CCC(c6ccc(C(F)(F)F)cc6)CC5)C4)cc3C2=O)C(=O)N1 (stereo not given) | 
